Assay results published in US8703812B2, “Protein synthesis required for long-term memory is induced by PKC activation on days preceding associative learning” (Blanchette Rockefeller Neurosciences Institute, priority 2005, dated 2014).
Entries after “also recorded” stand apart in the source; their conditions may differ.

Key:
PKC [1] = experiment: Protein kinase C assay in cultured hippocampal neurons; format: cell-based, Rat
Procedure: (§1) Cells were homogenized by sonication (5 sec, 25 W) in 100 μl of 10 mM Tris-HCl pH 7.4 buffer containing 1 mM EGTA, 1 mM PMSF, and 50 mM NaF. Homogenate was transferred to a polyallomer centrifuge tube and was centrifuged at 100,000×g for 10 min at 4°. The supernatant was removed and immediately frozen on dry ice. The particulate fraction was resuspended by sonication in 100 μl of the same buffer and stored at −80°. To measure PKC, 10 μl of cytosol or particulate fraction was incubated for 15 min at 37° in the presence of 10 μM histones, 4.89 mM CaCl2, 1.2 μg/μl phosphatidyl-L-serine, 0.18 μg/μl 1,2-dioctanoyl-sn-glycerol, 10 mM MgCl2, 20 mM HEPES (pH 7.4), 0-8 mM EDTA, 4 mM EGTA, 4% glycerol, 8 μg/ml aprotinin, 8 μg/ml leupeptin, and 2 mM benzamidine. 0.5 μCi [γ^32P]ATP was added and ^32P-phosphoprotein formation was measured by adsorption onto phosphocellulose as described previously (25). This assay was used with slight adjustments for either Hermissenda nervous system homogenates or cultured mammalian neuron homogenates
Rat hippocampal H19-7/IGF-IR cells (ATCC) were plated onto poly-L-lysine coated plates and grown at 35° in DMEM/10% FCS for several days until approx. 50% coverage was obtained. The cells were then induced to differentiate into a neuronal phenotype by replacing the medium with 5 ml N2 medium containing 10 ng/ml basic fibroblast growth factor and grown in T-25 flasks at 39° C. (26). Various concentrations of bryostatin (0.01-1.0 nM) were then added in 10 μl aqueous solution. After a specified interval, the medium was removed and the cells were washed with PBS, removed by gentle scraping, and collected by centrifugation at 1000 rpm for 5 min.
To further examine biochemical consequences of repeated exposures to bryostatin, rat hippocampal neurons were studied after they had been immortalized by retroviral transduction of temperature sensitive tsA5CSV40 large T antigen (25). These differentiate to have a neuronal phenotype when induced by basic fibroblast growth factor in N2 medium (26) and express a normal complement of neuronal proteins, including PKC.

PKC [2] = experiment: Protein kinase C assay (histone phosphorylation) in Hermissenda nervous systems; format: in vivo
Procedure: Bryostatin exposure—Specimens of Hermissenda Crassicornis were maintained in artificial sea water (ASW) at 15° for three days in perforated 50-ml conical centrifuge tubes before starting experiments. Bryostatin, purified from the marine bryozoan Bugula neritina, was dissolved in EtOH and diluted to its final concentration in ASW. Animals were incubated with bryostatin in ASW for 4 hr, then rinsed with normal ASW. For selected experiments lactacysteine (10 μM) or anisomycin was added to the ASW.
as §1
Intact Hermissenda were exposed for 4 hour intervals to bryostatin (0.28 nM) on successive days under conditions described (“Behavioral Pharmacology”). Histone phosphorylation (See “Methods”) in isolated circumesophageal nervous systems was then measured in the cytosol fraction. […] (FIG. 12, 13). […] After an initial activation (via translocation), this bryostatin effect is most likely due to increased synthesis of PKC, consistent with the increased levels of calexcitin induced by bryostatin, but not directly correlated with repeated bryostatin exposure.

[3] = single bryostatin 0.28 nM for 30 minutes

CCC/C=C/C=C/C(=O)O[C@H]1/C(=C/C(=O)OC)C[C@H]2C[C@H]([C@@H](C)O)OC(=O)C[C@H](O)C[C@@H]3C[C@H](OC(C)=O)C(C)(C)[C@](O)(C[C@@H]4C/C(=C/C(=O)OC)C[C@H](/C=C/C(C)(C)[C@]1(O)O2)O4)O3 [bryostatin, bryostatin-1]
cytosolic PKC activity (PKC [1]; first 4 hours after single bryostatin exposure): no significant alteration; also recorded: not altered
effect of second exposure on downregulation of membrane-bound PKC (PKC [1]; second 30-minute exposure after 2- to 4-hour delay): eliminated the significant downregulation; also recorded: significantly attenuates the downregulation
cytosolic PKC activity (PKC [1]; second bryostatin exposure delayed until 4 hours after the first): increased above baseline
cytosolic PKC activity (PKC [1]; second bryostatin exposure within 2 hr of the first): significant reduction of PKC activity
membrane-bound PKC after brief translocation (PKC [1]; [3]): prolonged downregulation
translocation of PKC from cytosol to particulate fraction (PKC [1]; [3]): approx 60%
PKC activity, membrane fraction (PKC [2]; 24 hours after the second of two bryostatin exposures): significantly increased over baseline
PKC activity, cytosol fraction (PKC [2]; bryostatin 0.28 nM 4 hour on successive days, 10 minutes and 24 hours after second of two exposures): significantly increased over baseline levels
